Test results from patent publication US20090239920A1, “PHARMACEUTICAL FORMULATIONS OF AN ANHYDRATE CRYSTAL FORM OF 2-(3-FLUORO-4-HYDROXYPHENYL)-7-VINYL-1,3-BENZOXAZOL-5-OL” (WYETH, priority 2006, published 2009).

Assay: Crystal form conversion of Form D suspended and stirred in solvent at room temperature for seven days
Type: physicochemical
Text: The anhydrate crystal form (Form D) can be converted to other crystal forms under suitable conditions. […] 6, 2006).

SMILES: C=Cc1cc(O)cc2nc(-c3ccc(O)c(F)c3)oc12 [Form D, 2-(3-fluoro-4-hydroxyphenyl)-7-vinyl-1,3-benzoxazol-5-ol]
- crystal form conversion (polymorphic stability) (suspended and stirred in ethanol or acetone at room temperature for seven days): another anhydrate crystal form is obtained
- crystal form conversion (polymorphic stability) (suspended and stirred in methanol at room temperature for seven days): another anhydrate crystal form is obtained
- crystal form conversion (polymorphic stability) (suspended and stirred in water at room temperature for seven days): most of the anhydrate crystal form is converted to a hydrate crystal form
